Calls of active or inactive are those of the source. Cut-off read from the data, not from the text of the source, for most assays here: actives have a measured Kd and inactives only a lower limit.
What was measured:
[1] = target: Serine/threonine-protein kinase MRCK alpha (Homo sapiens, UniProt Q5VT25)
[2] = target: Cyclin-dependent kinase 6 (Homo sapiens, UniProt Q00534)
[3] = target: Tyrosine-protein kinase CSK (Homo sapiens, UniProt P41240)
[4] = target: T1, Phenylalanine--tRNA ligase beta subunit (Homo sapiens, UniProt Q9NSD9)
T1 sequence (Q9NSD9 whole entry): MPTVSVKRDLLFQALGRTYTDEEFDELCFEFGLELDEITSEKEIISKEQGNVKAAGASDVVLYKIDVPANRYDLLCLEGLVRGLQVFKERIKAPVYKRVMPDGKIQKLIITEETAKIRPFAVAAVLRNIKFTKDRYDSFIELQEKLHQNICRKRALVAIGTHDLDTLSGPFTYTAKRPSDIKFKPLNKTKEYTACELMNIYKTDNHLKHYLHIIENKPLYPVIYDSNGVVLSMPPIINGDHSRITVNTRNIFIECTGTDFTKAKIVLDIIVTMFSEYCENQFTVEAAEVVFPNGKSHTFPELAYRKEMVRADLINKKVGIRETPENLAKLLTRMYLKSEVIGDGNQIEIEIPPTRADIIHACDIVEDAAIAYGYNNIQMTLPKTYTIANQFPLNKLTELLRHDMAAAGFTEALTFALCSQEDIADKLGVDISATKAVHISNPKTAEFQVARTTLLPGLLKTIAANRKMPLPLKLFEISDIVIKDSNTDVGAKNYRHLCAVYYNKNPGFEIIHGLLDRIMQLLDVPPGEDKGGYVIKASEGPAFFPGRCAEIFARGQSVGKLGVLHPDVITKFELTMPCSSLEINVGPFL

[5] = target: Mitogen-activated protein kinase kinase kinase kinase 4 (Homo sapiens, UniProt O95819)
[6] = target: T2, NUAK family SNF1-like kinase 2 (Homo sapiens, UniProt Q9H093)
T2 sequence (Q9H093 whole entry): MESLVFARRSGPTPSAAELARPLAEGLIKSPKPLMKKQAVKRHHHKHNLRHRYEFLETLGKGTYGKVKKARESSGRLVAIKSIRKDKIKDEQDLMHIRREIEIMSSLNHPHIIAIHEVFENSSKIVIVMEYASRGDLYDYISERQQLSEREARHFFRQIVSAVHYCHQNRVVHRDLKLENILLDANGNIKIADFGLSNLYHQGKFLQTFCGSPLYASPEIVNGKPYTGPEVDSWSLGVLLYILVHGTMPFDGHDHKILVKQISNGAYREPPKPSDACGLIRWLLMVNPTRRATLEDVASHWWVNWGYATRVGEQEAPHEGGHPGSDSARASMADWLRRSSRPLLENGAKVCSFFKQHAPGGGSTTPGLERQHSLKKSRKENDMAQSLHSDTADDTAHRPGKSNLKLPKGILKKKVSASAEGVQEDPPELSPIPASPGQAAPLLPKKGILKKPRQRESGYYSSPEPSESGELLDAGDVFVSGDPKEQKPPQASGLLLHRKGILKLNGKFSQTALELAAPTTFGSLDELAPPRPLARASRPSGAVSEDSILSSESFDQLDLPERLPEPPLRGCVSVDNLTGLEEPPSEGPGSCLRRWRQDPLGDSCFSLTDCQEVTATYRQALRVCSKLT

[7] = target: T3, Serine/threonine-protein kinase PLK4 (Homo sapiens, UniProt O00444)
T3 sequence (O00444 whole entry): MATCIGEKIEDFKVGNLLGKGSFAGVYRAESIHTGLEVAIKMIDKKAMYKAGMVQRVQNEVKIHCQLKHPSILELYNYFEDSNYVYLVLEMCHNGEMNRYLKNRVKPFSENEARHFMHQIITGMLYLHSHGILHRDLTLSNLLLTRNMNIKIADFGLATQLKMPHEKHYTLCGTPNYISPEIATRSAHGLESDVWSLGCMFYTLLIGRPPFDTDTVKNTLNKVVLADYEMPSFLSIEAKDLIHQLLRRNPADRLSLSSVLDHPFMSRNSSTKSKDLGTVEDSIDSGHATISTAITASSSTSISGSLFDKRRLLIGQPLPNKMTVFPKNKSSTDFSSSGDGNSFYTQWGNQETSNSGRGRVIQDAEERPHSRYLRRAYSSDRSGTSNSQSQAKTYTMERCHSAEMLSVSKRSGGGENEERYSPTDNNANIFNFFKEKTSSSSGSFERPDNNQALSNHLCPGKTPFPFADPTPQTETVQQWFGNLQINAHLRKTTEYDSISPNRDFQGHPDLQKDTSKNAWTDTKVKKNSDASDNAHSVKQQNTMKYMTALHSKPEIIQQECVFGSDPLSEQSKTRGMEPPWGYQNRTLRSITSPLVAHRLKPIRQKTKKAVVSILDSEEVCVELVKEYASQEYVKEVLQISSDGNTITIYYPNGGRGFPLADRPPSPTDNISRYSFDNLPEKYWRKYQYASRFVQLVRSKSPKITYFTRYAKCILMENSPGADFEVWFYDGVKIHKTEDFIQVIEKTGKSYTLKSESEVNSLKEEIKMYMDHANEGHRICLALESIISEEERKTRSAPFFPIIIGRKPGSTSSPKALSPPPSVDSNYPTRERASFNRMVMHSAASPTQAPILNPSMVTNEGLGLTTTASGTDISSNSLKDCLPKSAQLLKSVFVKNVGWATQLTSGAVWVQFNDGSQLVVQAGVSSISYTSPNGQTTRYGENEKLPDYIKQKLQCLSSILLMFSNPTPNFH

[8] = target: T4, Ras-related protein Rab-10 (Homo sapiens, UniProt P61026)
T4 sequence (P61026 whole entry): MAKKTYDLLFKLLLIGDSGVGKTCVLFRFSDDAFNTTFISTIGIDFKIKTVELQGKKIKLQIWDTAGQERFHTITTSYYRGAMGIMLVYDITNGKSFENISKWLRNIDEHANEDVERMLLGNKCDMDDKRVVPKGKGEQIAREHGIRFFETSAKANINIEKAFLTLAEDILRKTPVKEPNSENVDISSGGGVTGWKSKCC

Wee1-like protein kinase = Wee1-like protein kinase (Homo sapiens, UniProt P30291)
Note: in the data inactive means no Kd found up to 30 µM.

Cyclin-dependent kinase 6, sequence (Q00534 whole entry): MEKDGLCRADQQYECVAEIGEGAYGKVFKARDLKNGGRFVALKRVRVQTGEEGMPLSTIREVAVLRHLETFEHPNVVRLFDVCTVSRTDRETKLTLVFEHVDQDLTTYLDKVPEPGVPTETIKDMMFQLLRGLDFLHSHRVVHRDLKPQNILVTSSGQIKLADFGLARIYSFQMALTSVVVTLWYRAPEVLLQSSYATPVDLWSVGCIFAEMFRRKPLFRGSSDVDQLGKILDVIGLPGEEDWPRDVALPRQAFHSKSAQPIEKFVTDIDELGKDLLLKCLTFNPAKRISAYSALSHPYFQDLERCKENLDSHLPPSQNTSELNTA
Serine/threonine-protein kinase MRCK alpha, sequence (Q5VT25 whole entry): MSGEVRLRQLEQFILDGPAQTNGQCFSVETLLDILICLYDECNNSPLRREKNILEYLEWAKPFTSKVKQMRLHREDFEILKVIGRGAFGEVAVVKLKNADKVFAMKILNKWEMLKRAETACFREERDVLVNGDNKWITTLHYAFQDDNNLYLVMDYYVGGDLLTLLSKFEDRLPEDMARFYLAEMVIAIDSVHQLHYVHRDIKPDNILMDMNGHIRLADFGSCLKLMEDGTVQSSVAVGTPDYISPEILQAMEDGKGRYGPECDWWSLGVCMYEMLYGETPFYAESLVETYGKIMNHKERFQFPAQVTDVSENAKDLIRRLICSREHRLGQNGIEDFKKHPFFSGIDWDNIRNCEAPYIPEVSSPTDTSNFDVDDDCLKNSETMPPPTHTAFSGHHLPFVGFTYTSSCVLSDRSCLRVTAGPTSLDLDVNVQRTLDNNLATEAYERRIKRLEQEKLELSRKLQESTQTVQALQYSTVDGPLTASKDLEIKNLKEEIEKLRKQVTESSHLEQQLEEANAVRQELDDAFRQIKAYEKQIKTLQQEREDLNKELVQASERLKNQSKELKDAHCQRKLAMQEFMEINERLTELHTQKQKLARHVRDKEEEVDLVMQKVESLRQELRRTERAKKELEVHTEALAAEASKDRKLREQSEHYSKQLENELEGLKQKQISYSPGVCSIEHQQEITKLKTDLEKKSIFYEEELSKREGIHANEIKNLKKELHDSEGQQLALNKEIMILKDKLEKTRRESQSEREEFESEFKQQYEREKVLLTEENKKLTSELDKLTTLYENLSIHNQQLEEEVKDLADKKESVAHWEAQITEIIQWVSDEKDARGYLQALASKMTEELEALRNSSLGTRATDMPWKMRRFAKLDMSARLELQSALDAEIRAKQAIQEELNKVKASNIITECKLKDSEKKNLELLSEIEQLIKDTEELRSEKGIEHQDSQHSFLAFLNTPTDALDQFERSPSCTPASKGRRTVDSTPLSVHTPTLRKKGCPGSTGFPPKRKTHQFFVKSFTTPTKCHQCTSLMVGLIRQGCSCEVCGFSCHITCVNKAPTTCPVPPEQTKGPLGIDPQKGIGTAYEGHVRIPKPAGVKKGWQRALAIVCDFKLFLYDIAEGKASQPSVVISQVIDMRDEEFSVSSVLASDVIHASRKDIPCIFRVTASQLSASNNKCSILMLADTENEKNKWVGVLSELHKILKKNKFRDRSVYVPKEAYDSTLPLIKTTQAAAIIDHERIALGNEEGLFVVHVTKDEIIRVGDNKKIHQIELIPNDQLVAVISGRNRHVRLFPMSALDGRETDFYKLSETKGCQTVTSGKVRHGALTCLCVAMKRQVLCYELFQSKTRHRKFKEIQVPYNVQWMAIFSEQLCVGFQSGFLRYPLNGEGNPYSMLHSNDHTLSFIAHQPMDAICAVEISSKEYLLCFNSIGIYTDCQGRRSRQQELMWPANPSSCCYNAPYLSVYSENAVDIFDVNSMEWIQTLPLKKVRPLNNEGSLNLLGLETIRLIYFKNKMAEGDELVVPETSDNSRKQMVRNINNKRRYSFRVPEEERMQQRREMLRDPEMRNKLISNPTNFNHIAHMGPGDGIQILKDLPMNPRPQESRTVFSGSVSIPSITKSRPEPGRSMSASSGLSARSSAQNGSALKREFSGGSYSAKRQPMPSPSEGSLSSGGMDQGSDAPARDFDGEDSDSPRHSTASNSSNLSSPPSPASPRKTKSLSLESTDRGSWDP
Wee1-like protein kinase, sequence (P30291 whole entry): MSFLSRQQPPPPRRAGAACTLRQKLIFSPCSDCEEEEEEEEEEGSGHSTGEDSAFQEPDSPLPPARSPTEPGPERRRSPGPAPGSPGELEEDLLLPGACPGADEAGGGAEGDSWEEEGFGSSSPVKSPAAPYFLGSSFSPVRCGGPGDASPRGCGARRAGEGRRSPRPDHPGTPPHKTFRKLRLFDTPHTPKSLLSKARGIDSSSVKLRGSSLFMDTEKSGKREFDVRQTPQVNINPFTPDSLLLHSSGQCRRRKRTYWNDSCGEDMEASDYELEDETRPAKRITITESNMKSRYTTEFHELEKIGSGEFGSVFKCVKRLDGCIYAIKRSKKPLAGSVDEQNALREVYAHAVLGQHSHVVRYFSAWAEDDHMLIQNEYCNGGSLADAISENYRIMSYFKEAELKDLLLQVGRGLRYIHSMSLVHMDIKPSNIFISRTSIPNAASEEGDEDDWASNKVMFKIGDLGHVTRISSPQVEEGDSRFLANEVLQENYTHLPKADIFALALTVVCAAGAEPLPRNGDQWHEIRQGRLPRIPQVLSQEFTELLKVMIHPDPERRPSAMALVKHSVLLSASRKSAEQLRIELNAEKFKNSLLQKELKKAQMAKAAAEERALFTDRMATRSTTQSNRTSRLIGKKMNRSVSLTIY
Mitogen-activated protein kinase kinase kinase kinase 4, sequence (O95819 whole entry): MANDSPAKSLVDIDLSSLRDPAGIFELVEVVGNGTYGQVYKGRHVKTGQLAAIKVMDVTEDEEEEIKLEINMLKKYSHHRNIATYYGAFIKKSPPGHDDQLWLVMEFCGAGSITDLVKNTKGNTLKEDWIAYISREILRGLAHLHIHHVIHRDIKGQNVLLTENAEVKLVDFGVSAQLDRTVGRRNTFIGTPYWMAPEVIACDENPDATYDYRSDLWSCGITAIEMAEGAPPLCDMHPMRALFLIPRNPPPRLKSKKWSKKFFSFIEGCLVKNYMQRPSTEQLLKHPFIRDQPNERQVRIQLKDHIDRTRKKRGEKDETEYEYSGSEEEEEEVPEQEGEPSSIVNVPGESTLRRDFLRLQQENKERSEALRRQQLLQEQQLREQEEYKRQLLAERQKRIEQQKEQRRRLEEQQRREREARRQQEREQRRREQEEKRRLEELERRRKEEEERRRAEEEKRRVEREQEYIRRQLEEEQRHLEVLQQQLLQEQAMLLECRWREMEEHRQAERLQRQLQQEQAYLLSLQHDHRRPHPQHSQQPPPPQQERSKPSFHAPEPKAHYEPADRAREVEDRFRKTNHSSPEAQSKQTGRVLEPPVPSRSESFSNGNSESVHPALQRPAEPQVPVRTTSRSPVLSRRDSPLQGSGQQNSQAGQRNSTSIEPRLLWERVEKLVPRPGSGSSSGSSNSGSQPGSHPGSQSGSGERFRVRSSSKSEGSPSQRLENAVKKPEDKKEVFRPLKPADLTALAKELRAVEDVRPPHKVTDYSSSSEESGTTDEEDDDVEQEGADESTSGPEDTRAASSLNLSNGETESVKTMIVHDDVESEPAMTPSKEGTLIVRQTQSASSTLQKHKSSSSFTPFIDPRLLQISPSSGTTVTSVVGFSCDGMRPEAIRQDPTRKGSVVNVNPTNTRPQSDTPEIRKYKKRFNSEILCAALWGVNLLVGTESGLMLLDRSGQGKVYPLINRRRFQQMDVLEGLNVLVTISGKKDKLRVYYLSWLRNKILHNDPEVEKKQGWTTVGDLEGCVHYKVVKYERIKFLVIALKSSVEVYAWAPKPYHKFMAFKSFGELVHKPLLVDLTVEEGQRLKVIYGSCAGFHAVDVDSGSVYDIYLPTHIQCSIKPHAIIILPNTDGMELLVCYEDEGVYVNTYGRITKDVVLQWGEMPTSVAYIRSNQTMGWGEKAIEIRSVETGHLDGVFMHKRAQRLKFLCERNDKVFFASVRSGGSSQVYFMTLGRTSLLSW
Tyrosine-protein kinase CSK, sequence (P41240 whole entry): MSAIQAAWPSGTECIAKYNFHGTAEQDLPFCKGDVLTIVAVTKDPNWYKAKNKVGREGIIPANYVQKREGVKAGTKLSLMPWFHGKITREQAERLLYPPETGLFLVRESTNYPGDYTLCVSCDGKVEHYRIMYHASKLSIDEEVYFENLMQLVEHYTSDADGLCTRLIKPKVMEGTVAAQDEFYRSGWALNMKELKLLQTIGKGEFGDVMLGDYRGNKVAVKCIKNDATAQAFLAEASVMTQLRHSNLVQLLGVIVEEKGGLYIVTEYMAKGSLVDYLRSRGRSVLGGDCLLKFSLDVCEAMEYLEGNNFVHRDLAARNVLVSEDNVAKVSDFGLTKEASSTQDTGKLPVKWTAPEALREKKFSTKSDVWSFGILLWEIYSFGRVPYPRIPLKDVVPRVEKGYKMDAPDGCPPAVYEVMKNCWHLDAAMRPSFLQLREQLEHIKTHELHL

| Compound | Kd [1] | Kd [2] | Kd [3] | Kd [4] | Kd [5] | Kd [6] | Kd [7] | Kd [8] | Kd (Wee1-like protein kinase) |
| --- | --- | --- | --- | --- | --- | --- | --- | --- | --- |
| C#Cc1cccc(Nc2ncnc3cc4c(cc23)OCCOCCOCCO4)c1 [ICOTINIB] | > 30 µM (inactive) | > 30 µM (inactive) | > 30 µM (inactive) | > 30 µM (inactive) | > 30 µM (inactive) | > 30 µM (inactive) | > 30 µM (inactive) | > 30 µM (inactive) | > 30 µM (inactive) |
| COc1cc2ncnc(Nc3ccc(O)cc3)c2cc1OC [WHI-P131] | > 30 µM (inactive) | > 30 µM (inactive) | > 30 µM (inactive) | > 30 µM (inactive) | > 30 µM (inactive) | > 30 µM (inactive) | > 30 µM (inactive) | > 30 µM (inactive) | > 30 µM (inactive) |
| C=CC(=O)Nc1cc(Nc2nccc(-c3cn(C)c4ccccc34)n2)c(OC)cc1N(C)CCN(C)C [OSIMERTINIB] | > 30 µM (inactive) | > 30 µM (inactive) | > 30 µM (inactive) | > 30 µM (inactive) | > 30 µM (inactive) | > 30 µM (inactive) | > 30 µM (inactive) | > 30 µM (inactive) | > 30 µM (inactive) |
| FC(F)(F)c1ccc(CNc2ccc(Cc3c[nH]c4ncc(Cl)cc34)cn2)cn1 [PEXIDARTINIB] | > 30 µM (inactive) | > 30 µM (inactive) | > 30 µM (inactive) | > 30 µM (inactive) | > 30 µM (inactive) | > 30 µM (inactive) | > 30 µM (inactive) | > 30 µM (inactive) | > 30 µM (inactive) |
| CC1(COc2ccc3c(c2)ncn3-c2ccc3cccc(N4CCC(N)CC4)c3n2)COC1 [CRENOLANIB] | > 30 µM (inactive) | > 30 µM (inactive) | > 30 µM (inactive) | > 30 µM (inactive) | 0.282 µM (active) | > 30 µM (inactive) | > 30 µM (inactive) | > 30 µM (inactive) | > 30 µM (inactive) |
| COc1cccc2cc(-c3nc([C@H]4CC[C@H](C(=O)O)CC4)n4ncnc(N)c34)[nH]c12 [OSI-027] | > 30 µM (inactive) | > 30 µM (inactive) | > 30 µM (inactive) | > 30 µM (inactive) | > 30 µM (inactive) | > 30 µM (inactive) | > 30 µM (inactive) | > 30 µM (inactive) | > 30 µM (inactive) |
| c1cc(OCCN2CCCCC2)cc(-c2n[nH]c3ccc(-c4nc[nH]n4)cc23)c1 [CC-401] | > 30 µM (inactive) | > 30 µM (inactive) | > 30 µM (inactive) | > 30 µM (inactive) | 4.17 µM (active) | > 30 µM (inactive) | > 30 µM (inactive) | > 30 µM (inactive) | > 30 µM (inactive) |
| COc1ccc(-c2ccc3ncc4c(c3c2)n(-c2ccc(N3CCNCC3)c(C(F)(F)F)c2)c(=O)n4C)cn1 [BGT-226 FREE BASE] | > 30 µM (inactive) | > 30 µM (inactive) | > 30 µM (inactive) | > 30 µM (inactive) | > 30 µM (inactive) | > 30 µM (inactive) | > 30 µM (inactive) | > 30 µM (inactive) | > 30 µM (inactive) |
| CC(C)CC(=O)Nc1[nH]nc2c1CN(C(=O)C1CCN(C)CC1)C2(C)C [PHA-793887] | > 30 µM (inactive) | > 30 µM (inactive) | > 30 µM (inactive) | 0.003 µM | > 30 µM (inactive) | > 30 µM (inactive) | > 30 µM (inactive) | > 30 µM (inactive) | > 30 µM (inactive) |
